From US11071731B2, “Allosteric modulators of the mu opioid receptor” (Chiromics, LLC, priority 2017, dated 2021)

What was measured:
mu opioid receptor (MOR) [1] = target: T1, mu opioid receptor (MOR) (Homo sapiens, UniProt P35372); assay: PathHunter β-arrestin recruitment assay, PAM mode with EC20 endomorphin-1; format: cell-based; conditions: for EC50 / β-arrestin Max Response: β-arrestin recruitment
Outline: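 Enzyme fragment complementation read-out: β-gal ED fragment fused to receptor, EA fused to β-arrestin, recruitment restoring β-gal activity detected by chemiluminescence. EC50 and percent maximal response derived for each compound.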

mu opioid receptor (MOR) [2] = target: T1, mu opioid receptor (MOR); assay: Hit Hunter cAMP signaling assay (adenylyl cyclase inhibition), PAM mode with EC20 endomorphin-1; format: cell-based
[3] = maximal response for β-arrestin recruitment
[4] = cAMP EC50, adenylyl cyclase inhibition
[5] = maximal response for adenylyl cyclase inhibition
[6] = activity switching by MOR PAMs, read-out: β-arrestin EC50
[7] = adenylyl cyclase inhibition, activity switching by MOR PAMs
[8] = adenylyl cyclase inhibition, activity switching by MOR PAMs, read-out: cAMP EC50
[9] = adenylyl cyclase inhibition, read-out: cAMP EC50

T1 sequence (P35372 whole entry, the tested form may be a part): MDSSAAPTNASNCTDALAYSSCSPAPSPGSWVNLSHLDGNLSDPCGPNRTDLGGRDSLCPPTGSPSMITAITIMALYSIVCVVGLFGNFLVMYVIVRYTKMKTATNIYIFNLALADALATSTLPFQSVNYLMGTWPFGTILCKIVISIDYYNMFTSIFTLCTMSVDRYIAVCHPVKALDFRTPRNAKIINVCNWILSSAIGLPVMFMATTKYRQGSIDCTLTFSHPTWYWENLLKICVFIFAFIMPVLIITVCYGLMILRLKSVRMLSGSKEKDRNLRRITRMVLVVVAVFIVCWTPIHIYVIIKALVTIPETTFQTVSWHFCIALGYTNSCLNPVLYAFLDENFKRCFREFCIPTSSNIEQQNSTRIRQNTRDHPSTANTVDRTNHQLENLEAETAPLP

Structure (SMILES)	β-arr Max. Resp. (mu opioid receptor (MOR) [1]; [3])	EC50 (mu opioid receptor (MOR) [1]; read-out: β-arr. EC50)	EC50 (mu opioid receptor (MOR) [2]; [4])	cAMP Max. Resp. (mu opioid receptor (MOR) [2]; [5])	other results
COc1ccc(C2CCCCN2S(=O)(=O)C2CC2)cc1Br (stereo not drawn) [compound 15]	E (E represents a maximal response of 40-60%)	> 2100 nM	> 2100 nM	E (E represents a maximal response of 40-60%)	–
COc1ccc(C2CCCCN2S(C)(=O)=O)cc1Br (stereo not drawn) [compound 16]	D (D represents a maximal response of < 40%)	> 2100 nM	> 2100 nM	D (D represents a maximal response of < 40%)	–
COc1ccc(C2CCCCN2S(=O)(=O)c2cccnc2Cl)cc1Br (stereo not drawn) [compound 17]	D (D represents a maximal response of < 40%)	> 2100 nM	> 2100 nM	D (D represents a maximal response of < 40%)	–
O=S(=O)(c1ccc(Cl)cc1)N1CCCCC1c1cccc(C(F)(F)F)c1 (stereo not drawn) [compound 18]	F (F represents a maximal response of > 60%)	> 2100 nM	–	D (D represents a maximal response of < 40%)	β-arrestin Max Response (mu opioid receptor (MOR) [1]; activity switching by MOR PAMs): F (F represents a maximal response of >60%); EC50 (mu opioid receptor (MOR) [1]; [6]): > 2100 nM; cAMP Max Resp. (mu opioid receptor (MOR) [2]; [7]): D (D represents a maximal response of < 40%); EC50 (mu opioid receptor (MOR) [2]; [8]): > 2100 nM; EC50 (mu opioid receptor (MOR) [2]; [9]): 700 to 2100 nM
COc1cc(C2CCCCN2S(=O)(=O)c2ccc(Cl)cc2)ccc1Br (stereo not drawn) [compound 42]	E (E represents a maximal response of 40-60%)	700 to 2100 nM	–	D (D represents a maximal response of < 40%)	EC50 (mu opioid receptor (MOR) [2]; [9]): > 2100 nM
O=S(=O)(c1ccc(Cl)cc1)N1CCCCC1c1ccc(OC(F)(F)F)c(Br)c1 (stereo not drawn) [compound 43]	F (F represents a maximal response of > 60%)	700 to 2100 nM	–	D (D represents a maximal response of < 40%)	EC50 (mu opioid receptor (MOR) [2]; [9]): > 2100 nM
O=S(=O)(c1ccc(Cl)cc1)N1CCCCC1c1ccc2c(c1)OCO2 (stereo not drawn) [compound 44]	F (F represents a maximal response of > 60%)	> 2100 nM	–	E (E represents a maximal response of 40-60%)	allosteric activity for β-arrestin recruitment (mu opioid receptor (MOR) [1]; EC20 endomorphin-1 concentration of 4.5 nM): moderate positive allosteric activity; signaling preference β-arrestin vs cAMP (mu opioid receptor (MOR) [1]; comparison of β-arrestin and cAMP assays): equivalent effects on β-arrestin recruitment and cAMP signaling; β-arr. Max Resp. (mu opioid receptor (MOR) [1]; maximal response for β-arrestin recruitment, Table 3): 99; EC50 (mu opioid receptor (MOR) [1]; Table 3, read-out: β-arr. EC50): 5670 nM; allosteric activity for cAMP signaling (mu opioid receptor (MOR) [2]; EC20 endomorphin-1 concentration of 0.45 nM): moderate positive allosteric activity; EC50 (mu opioid receptor (MOR) [2]; adenylyl cyclase inhibition, Table 3, read-out: cAMP EC50): 3740 nM; EC50 (mu opioid receptor (MOR) [2]; [9]): > 2100 nM; cAMP Max Resp. (mu opioid receptor (MOR) [2]; maximal response for adenylyl cyclase inhibition, Table 3): 57
O=S(=O)(c1ccc(Cl)cc1)N1CCCCC1c1cncc(C(F)(F)F)n1 (stereo not drawn) [compound 63]	F (F represents a maximal response of > 60%)	> 2100 nM	–	E (E represents a maximal response of 40-60%)	β-arrestin Max Response (mu opioid receptor (MOR) [1]; activity switching by MOR PAMs): F (F represents a maximal response of >60%); EC50 (mu opioid receptor (MOR) [1]; [6]): > 2100 nM; cAMP Max Resp. (mu opioid receptor (MOR) [2]; [7]): E (E represents a maximal response of 40-60%); EC50 (mu opioid receptor (MOR) [2]; [8]): > 2100 nM; EC50 (mu opioid receptor (MOR) [2]; [9]): > 2100 nM
Fc1ccc(C2CCCCN2c2nc(Cl)ncc2F)cc1Cl (stereo not drawn) [compound 121]	F (F represents a maximal response of > 60%)	< 700 nM	< 700 nM	E (E represents a maximal response of 40-60%)	–
Fc1cc(C2CCCCN2c2nc(Cl)ncc2F)cc(C(F)(F)F)c1 (stereo not drawn) [compound 122]	F (F represents a maximal response of > 60%)	< 700 nM	< 700 nM	F (F represents a maximal response of > 60%)	–
Fc1ccc(C2CCCCN2c2nc(Cl)ncc2F)cc1Br (stereo not drawn) [compound 124]	F (F represents a maximal response of > 60%)	< 700 nM	< 700 nM	E (E represents a maximal response of 40-60%)	–
Fc1cnc(Cl)nc1N1CCCCC1c1ccc(OC(F)(F)F)c(Br)c1 (stereo not drawn) [compound 126]	F (F represents a maximal response of > 60%)	< 700 nM	< 700 nM	E (E represents a maximal response of 40-60%)	–
Fc1ccc(C2CCCCN2c2nc(Cl)ncc2F)cc1 (stereo not drawn) [compound 127]	F (F represents a maximal response of > 60%)	< 700 nM	700 to 2100 nM	E (E represents a maximal response of 40-60%)	–
Fc1cnc(Cl)nc1N1CCCCC1c1ccc(Cl)c(C(F)(F)F)c1 (stereo not drawn) [compound 128]	F (F represents a maximal response of > 60%)	< 700 nM	700 to 2100 nM	E (E represents a maximal response of 40-60%)	–
Fc1ccc(C2CCCCN2c2nc(Cl)ncc2F)cc1F (stereo not drawn) [compound 129]	F (F represents a maximal response of > 60%)	< 700 nM	700 to 2100 nM	E (E represents a maximal response of 40-60%)	–
Cc1cc(C2CCCCN2c2nc(Cl)ncc2F)ccc1F (stereo not drawn) [compound 130]	F (F represents a maximal response of > 60%)	< 700 nM	700 to 2100 nM	E (E represents a maximal response of 40-60%)	–
Fc1cnc(Cl)nc1N1CCCCC1c1cccc(OC(F)(F)F)n1 (stereo not drawn) [compound 131]	F (F represents a maximal response of > 60%)	700 to 2100 nM	700 to 2100 nM	D (D represents a maximal response of < 40%)	–

Structure (SMILES)	β-arr Max. Resp. (mu opioid receptor (MOR) [1]; [3])	EC50 (mu opioid receptor (MOR) [1]; read-out: β-arr. EC50)	EC50 (mu opioid receptor (MOR) [2]; [4])	cAMP Max. Resp. (mu opioid receptor (MOR) [2]; [5])	other results
COc1ccc(C2CCCCN2c2nc(Cl)ncc2F)cc1Br (stereo not drawn) [compound 132]	F (F represents a maximal response of > 60%)	> 2100 nM	700 to 2100 nM	D (D represents a maximal response of < 40%)	–
Fc1cccc(C2CCCCN2c2nc(Cl)ncc2F)n1 (stereo not drawn) [compound 133]	F (F represents a maximal response of > 60%)	> 2100 nM	> 2100 nM	E (E represents a maximal response of 40-60%)	–
Cc1ccc(C(F)(F)F)cc1C1CCCCN1c1nc(Cl)ncc1F (stereo not drawn) [compound 134]	F (F represents a maximal response of > 60%)	> 2100 nM	> 2100 nM	D (D represents a maximal response of < 40%)	–
Cc1c(C2CCCCN2c2nc(Cl)ncc2F)cccc1C(F)(F)F (stereo not drawn) [compound 135]	F (F represents a maximal response of > 60%)	700 to 2100 nM	< 700 nM	D (D represents a maximal response of < 40%)	–
Fc1ccc(C2C3CCC(C3)N2c2nc(Cl)ncc2F)cc1Br (stereo not drawn) [compound 136]	F (F represents a maximal response of > 60%)	> 2100 nM	> 2100 nM	D (D represents a maximal response of < 40%)	–
Fc1cnc(Cl)nc1N1C2CCC(C2)C1c1cccc(C(F)(F)F)n1 (stereo not drawn) [compound 137]	D (D represents a maximal response of < 40%)	> 2100 nM	> 2100 nM	D (D represents a maximal response of < 40%)	–
COc1ccc(C2C3CCC(C3)N2c2nc(Cl)ncc2F)cc1Br (stereo not drawn) [compound 138]	D (D represents a maximal response of < 40%)	> 2100 nM	> 2100 nM	D (D represents a maximal response of < 40%)	–
Fc1cc(C2C3CCC(C3)N2c2nc(Cl)ncc2F)cc(C(F)(F)F)c1 (stereo not drawn) [compound 139]	F (F represents a maximal response of > 60%)	> 2100 nM	> 2100 nM	E (E represents a maximal response of 40-60%)	–
OCCNc1cccc(C2CCCCN2Cc2cc(Cl)ccc2F)n1 (stereo not drawn) [compound 141]	D (D represents a maximal response of < 40%)	> 2100 nM	–	D (D represents a maximal response of < 40%)	EC50 (mu opioid receptor (MOR) [2]; [9]): > 2100 nM
FC(F)(F)c1cccc(C2CCCCN2Cc2cncc(Cl)c2)n1 (stereo not drawn) [compound 143]	D (D represents a maximal response of < 40%)	> 2100 nM	> 2100 nM	D (D represents a maximal response of < 40%)	–
[N-]=[N+]=Nc1cccc(C2CCCCN2Cc2cc(Cl)ccc2F)n1 (stereo not drawn) [compound 144]	E (E represents a maximal response of 40-60%)	> 2100 nM	> 2100 nM	D (D represents a maximal response of < 40%)	–
Fc1ccc(C2CCCCN2Cc2cc(Cl)ccn2)cc1Cl (stereo not drawn) [compound 145]	F (F represents a maximal response of > 60%)	> 2100 nM	700 to 2100 nM	E (E represents a maximal response of 40-60%)	–
FC(F)(F)c1cccc(C2CCCCN2Cc2ccc(Cl)cc2)n1 (stereo not drawn) [compound 146]	F (F represents a maximal response of > 60%)	> 2100 nM	> 2100 nM	D (D represents a maximal response of < 40%)	–
Fc1ccc(C2CCCCN2Cc2cncc(Cl)c2)cc1Cl (stereo not drawn) [compound 147]	F (F represents a maximal response of > 60%)	> 2100 nM	> 2100 nM	D (D represents a maximal response of < 40%)	–
Fc1cc(C2CCCCN2Cc2cccc(Br)c2)cc(C(F)(F)F)c1 (stereo not drawn) [compound 148]	F (F represents a maximal response of > 60%)	700 to 2100 nM	> 2100 nM	E (E represents a maximal response of 40-60%)	–
CN(C)c1cccc(C2CCCCN2Cc2cc(Cl)ccc2F)n1 (stereo not drawn) [compound 149]	F (F represents a maximal response of > 60%)	> 2100 nM	> 2100 nM	E (E represents a maximal response of 40-60%)	–
